Laboratory results from EP0348490B1, “TREATMENT OF TYPE 2 DIABETES MELLITUS” (AMYLIN PHARMACEUTICALS, INC., priority 1988, dated 1995).
Where no end group is shown, it is not given here.

Columns and labels:
[1] = test system: isolated islets of Langerhans; assay: Glucose-stimulated insulin production by isolated islets of Langerhans; format: cell-based, rats
Experimental: The following experiments illustrate the fact that subpeptides of amylin can act to reduce the amount of insulin produced by isolated islets of Langerhans in response to a standard glucose challenge. […] All experiments were performed by known methods used in experimental practice. See, e.g., Lacey PE, and Kostianovsky M, Method for the isolation of intact islets of Langerhans from the rat pancreas. Diabetes 1967; 16:35-39.
Briefly, rats were killed, and islets of Langerhans were isolated from their pancreases. Experiments were performed either with freshly isolated islets or after overnight incubation of islets (23 h) in standard culture medium and conditions at 37°C. […]
Production of insulin is expressed as µU/islet/h. […] The integrity of the islet response was assessed by comparing the responses after stimulation of different aliquots of islets by two and ten mmol/L glucose, respectively, and the strength of the inhibitory response was judged against that induced by 1 µg/ml (650 nmol/L) somatostatin. […]
The results are shown in TABLE 5 below and all results are expressed as ± standard error of the mean (s.e.m.). The significance of differences between the means of groups is assessed by the t-test. […] In all other experimental conditions, the significance of the inhibitory effect is measured against the effect of 10 mmol/L glucose alone.

soleus muscles strips = conditions: synthetic subpeptides; data not shown

Row | Substance | inhibition of insulin secretion compared with that seen with amylin 27-37 ([1]; 10 mmol/L glucose, somatostatin 1 ug/mL (650 nmol/L), varying concentrations of CGRP 27-37) | trend of inhibition relative to that caused by amylin 27-37 ([1]; never reached significance) | activity in inhibiting glycogen synthesis (reducing incorporation of radioactive glucose into glycogen) (soleus muscles strips)
1 | CGRP 27-37: subpeptide 27-37 of calcitonin gene related peptide, believed to affect the amylin receptor as an agonist (FVPTNVGSKAF; ends and bridges not checked; UniProt P06881 109-119, looked up, fragment) | no significant difference | slightly greater | 
2 | Amylin 8-37 (ATQRLANFLVHSSNNFGAILSSTNVGSNTY; Islet amyloid polypeptide; UniProt P10997 41-70, looked up, fragment) [[5]] |  |  | significant activity was present
